In patent US4017487A, “7β-(D-5-amino-5-carboxyvaleramido )-7-methoxy-3-substituted-3-cephem-4-carboxylic acid antibiotics” (priority 1974, dated 1977):
Structures can show the parent of a compound that is named as a salt. Where two headings read alike, the source gives them in different places.

Legend:
[1] = tested on: gram-negative and gram-positive bacteria; experiment: Antibacterial activity (general statements); format: cell-based
[2] = tested on: gram-negative and gram-positive infections; experiment: In vivo protection against infection (general statements); parameters: species or system mice
Description: (§1) Methods: The method employed in this characterization is as follows: Female white Swiss mice, average weight 20-23 grams, were infected intraperitoneally with 3-20 times the number of organisms calculated to be lethal for 50% of the infected control animals (3-20 LD50 doses). At the time of infection and again six hours later, therapy was given by the designated route. Controls of the virulence of the culture and the toxicity of the antibiotic for uninfected mice were included in the tests. Seven days after infection the test was considered complete and the amount of the antibiotic (I) that would be required to protect 50% of the infected and treated animals was calculated by the method of Knudsen and Curtis; J. Amer. Stat. Assoc. Vol. 42: page 282 (1947).
The method employed in these studies is the same as described above with regard to the in vivo characterization of 810A.

[3] = tested on: degradative bacteria / enzymatic degradation; experiment: Resistance to enzymatic degradation / bacterial inactivation (general statements); format: biochemical; settings: compared with cephalosporin C
Description: Bacterial Inactivation with 810A: An in vitro study was designed to determine the resistance of Antibiotic 810A, to bacterial inactivation as compared with cephalosporin C, cephaloridine and cephalothin.

Proteus vulgaris MB-838 = experiment: Disc-plate assay using Proteus vulgaris
Proteus morganii 3202 = experiment: In vivo mouse protection test; parameters: species or system white Swiss mice; settings: 4000 mg. × 2 doses
Description: as §1
The method employed in these studies is the same as described above with regard to the in vivo characterization of 810A. The results of these tests are described below in Table XIb:
Administration was by subcutaneous injection. At the completion of the test period, usually seven days after administration, the amount of product required to protect 50% of the mice (ED50) from this otherwise fatal injection was calculated: […]

Proteus morganii 356 = experiment: In vivo mouse protection test, cephalosporin-resistant clinical isolate; parameters: species or system white Swiss mice; settings: s.c. × 2 doses
Description: as §1
In addition to the aforementioned in vivo trials of the product, a clinical isolate of Proteus morganii 356 which is resistant to cephalosporins and capable of degrading cephalosporin C, was employed in a mouse protection test performed in the same manner as reported above.

[4] = tested on: Aerobacter cloacae (MB-2646); experiment: Bacterial inactivation, cell-free extract; format: biochemical; settings: for Antibiotic Activity Remaining: starting 250 μg./ml.
Experimental: The ability of Antibiotic 810A and cephalosporin C to withstand the degradative effect of the culture Aerobacter cloacae (MB-2646) was also determined. This culture is gram-negative and resistant to cephalosporin C. […] The source of the inactivating substance is a 1:160 dilution of the filtrate of an 18 hour 37° C. shake culture of Aerobacter cloacae MB-2646 in nutrient broth containing 0.2% yeast extract. Table XIV, infra, indicates the percent inactivation of Antibotic 810A, cephalothin, cephaloridine and cephalosporin C on Vibrio percolans (MB-1272) via this method:
Using the same assay procedure as described above, Table XV, infra, indicates the relative resistance of Antibiotic 810A to enzymatic inactivation by Aerobacter cloacae. The starting concentration is 250 μg./ml. Results are expressed in μg./ml.

Escherichia coli = experiment: In vitro disc-plate agar diffusion, antibacterial spectrum (7 mm disc; 7 mm = no inhibition zone); format: cell-based; settings: 16 h, 192 μg/ml, inoculum 5 ml/150 ml, 25° C., read-out: Inhibition Zone Diameter
Bacillus sp. = experiment: In vitro disc-plate agar diffusion, antibacterial spectrum (7 mm = no zone); format: cell-based; settings: 16 h, 192 μg/ml, inoculum 5 ml/150 ml, 25° C., read-out: Inhibition Zone Diameter
Proteus vulgaris = experiment: as above; format: cell-based; settings: 16 h, read-out: Inhibition Zone Diameter
Bacillus subtilis = experiment: as above; format: cell-based; settings: 16 h, read-out: Inhibition Zone Diameter
Salmonella gallinarum = experiment: as above; format: cell-based; settings: Salmonella enterica, 16 h, 192 μg/ml, inoculum 10 ml/150 ml, 25° C., read-out: Inhibition Zone Diameter
Xanthomonas vesicatoria = experiment: as above; format: cell-based; settings: 16 h, read-out: Inhibition Zone Diameter
Escherichia coli strains = experiment: microbe, parasite or virus in culture; format: cell-based; settings: 16 h, 192 μg/ml, Sensitive parent, 25° C., read-out: Inhibition Zone Diameter
Escherichia coli W-MB-60 = experiment: Special effects spectrum in vitro study, disc-plate (7 mm = no zone); format: cell-based; settings: WMB60, 16 h
Vibrio percolans MB-1272 = experiment: Disc-plate assay using Vibrio percolans
penicillinase = settings: cited from earlier work
[5] = tested on: Alcaligenes faecalis (MB-9); settings: alcaligenes faecalis cells, 3 h
[6] = 2 hour incubation, assay organism B. subtilis 964
[7] = 2 hour incubation, assay organism V. percolans 1272

CO[C@@]1(NC(=O)CCC[C@@H](NC(=O)OC(C)(C)C)C(=O)O)C(=O)N2C(C(=O)O)=C(COC(N)=O)CS[C@@H]21 [7β-(D-5N-tert-tertiary-butoxycarbonylamino-5-carboxyvaleramido)-3-(carbamoyloxymethyl)-7-methoxy-3-cephem-4-carboxylic acid]
biopotency relative to starting material ([1]; relative to disodium salt of 842A): one-tenth

COC(=Cc1ccc(OS(=O)(=O)O)cc1)C(=O)OCC1=C(C(=O)O)N2C(=O)[C@](NC(=O)CCC[C@@H](N)C(=O)O)(OC)[C@H]2SC1 [Ic, 7β-(D-5-amino-5-carboxyvaleramido)-3-(α-methoxy-p-sulfooxycinnamoyloxymethyl)-7-methoxy-3-cephem-4-carboxylic acid]
in vivo protection / activity ([2]; mouse, in vivo): when administered intraperitoneally, it is effective against a variety of gram-negative and gram-positive infections
oral protection against infections ([2]; oral): protects against infections due to Proteus vulgaris
resistance to enzymatic degradation [3]: more resistant to enzymatic degradation than cephalosporin C
Total Biological Units (Proteus vulgaris MB-838; Example 6 separation): 10,000 units

O=C(Cc1cccs1)N[C@@H]1C(=O)N2C(C(=O)[O-])=C(C[n+]3ccccc3)CS[C@H]12 [Cephaloridine]
protection against Proteus morganii 3202 (Proteus morganii 3202): failed to protect
ED50 by Subcutaneous Route × 2 Doses (average of Two Trials) (Proteus morganii 356): 9,270 μg.
Antibiotic Activity Remaining [4, 6]: < 10 µg/mL
Antibiotic Activity Remaining [4, 7]: < 10 µg/mL
percent inactivation ([4]; aerobacter cloacae culture filtrate, 2 h): 96%

CO[C@@]1(NC(=O)CCC[C@@H](N)C(=O)O)C(=O)N2C(C(=O)O)=C(COC(N)=O)CS[C@@H]21 [Sodium Salt]
zone of inhibition at 192 µg/mL (Escherichia coli): 18 mm
zone of inhibition at 192 µg/mL (Bacillus sp.): 7 mm
zone of inhibition at 192 µg/mL (Proteus vulgaris): 24 mm
zone of inhibition at 192 µg/mL (Bacillus subtilis): 18 mm
zone of inhibition at 192 µg/mL (Salmonella gallinarum): 25 mm
zone of inhibition at 192 µg/mL (Xanthomonas vesicatoria): 17 mm
zone of inhibition at 192 µg/mL (Escherichia coli strains): 18 mm
zone of inhibition at 192 µg/mL (Escherichia coli W-MB-60; pH 9, read-out: Inhibition Zone Diameter, 192 μg/ml, 0.1 M Phosphate Buffer pH 9): 24 mm
zone of inhibition at 192 µg/mL (Escherichia coli W-MB-60; read-out: Inhibition Zone Diameter, 192 μg/ml, Cation Exchange Resin (Dow ET 91) 1%): 18 mm
zone of inhibition at 192 µg/mL (Escherichia coli W-MB-60; read-out: Inhibition Zone Diameter, 192 μg/ml, Control (no additions)): 18 mm
concentration giving a 25 mm. zone (Vibrio percolans MB-1272; 25 mm. zone, listed as Sodium Salt of 842A): 5 µg/mL

COC(=Cc1ccc(O)cc1)C(=O)OCC1=C(C(=O)O)N2C(=O)[C@](NC(=O)CCC[C@@H](N)C(=O)O)(OC)[C@H]2SC1 [7β-(D-5-amino-5-carboxyvaleramido)-3-(α-methoxy-p-hydroxycinnamoyloxymethyl)-7-methoxy-3-cephem-4-carboxylic acid]
IC (25 mm zone) (Proteus vulgaris MB-838; Proteus vulgaris, MB838, read-out: bio-potency (concentration for a 25 mm. zone)): 18 µg/mL

CC1(C)S[C@@H]2[C@H](NC(=O)Cc3ccccc3)C(=O)N2[C@H]1C(=O)O [Penicillin G]
resistance to penicillinase (penicillinase): in the presence of penicillinase it is degraded to a form which is ineffective against most pathogens

CO[C@@]1(NC(=O)CCC[C@@H](N)C(=O)O)C(=O)N2C(C(=O)O)=C(C)CS[C@@H]21 [7β-(D-5-amino-5-carboxyvaleramido)-3-methyl-7-methoxy-3-cephem-4-carboxylic acid]
bioactivity (Vibrio percolans MB-1272; 50 μg/ml): Inactive

CO[C@@]1(NC(=O)CCC[C@@H](N)C(=O)O)C(=O)N2C(C(=O)O)=C(CN=[N+]=[N-])CS[C@@H]21 [7β-(D-5-amino-5-carboxyvaleramido)-3-(azidomethyl)-7-methoxy-3-cephem-4-carboxylic acid]
bioactivity ([1]; several strains of bacteria): possessed bioactivity against several strains of bacteria

CC(=O)OCC1=C(C(=O)O)N2C(=O)[C@@H](NC(=O)Cc3cccs3)[C@H]2SC1 [Cephalothin]
protection against Proteus morganii 3202 (Proteus morganii 3202): failed to protect
ED50 by Subcutaneous Route × 2 Doses (average of Two Trials) (Proteus morganii 356): > 20,000 μg.
percent inactivation ([4]; 2 hour incubation, cell-free extract, assayed on V. percolans (MB-1272) plates): 66%
Antibiotic Activity Remaining [4, 6]: 140 µg/mL
Antibiotic Activity Remaining [4, 7]: 85 µg/mL
percent inactivation [5]: 50%
